Test results reported in PMC6625793, “The autophagic membrane tether ATG2A transfers lipids between membranes” (eLife, 2019).

Assays:
Type in all cases: binding
[1] = molecular target: T1, WIPI1 (Homo sapiens, UniProt Q5MNZ9); experiment: liposome flotation, western blot; settings: 20 mM HEPES pH 7.5, 150 mM NaCl, 1 mM TCEP; LUVs with 5% PI3P versus without PI3P
T1 construct: residues 1-446; N-terminal 6xHis tag kept in flotation assays; expressed in Sf9 insect cells
T1 sequence (Q5MNZ9 1-446): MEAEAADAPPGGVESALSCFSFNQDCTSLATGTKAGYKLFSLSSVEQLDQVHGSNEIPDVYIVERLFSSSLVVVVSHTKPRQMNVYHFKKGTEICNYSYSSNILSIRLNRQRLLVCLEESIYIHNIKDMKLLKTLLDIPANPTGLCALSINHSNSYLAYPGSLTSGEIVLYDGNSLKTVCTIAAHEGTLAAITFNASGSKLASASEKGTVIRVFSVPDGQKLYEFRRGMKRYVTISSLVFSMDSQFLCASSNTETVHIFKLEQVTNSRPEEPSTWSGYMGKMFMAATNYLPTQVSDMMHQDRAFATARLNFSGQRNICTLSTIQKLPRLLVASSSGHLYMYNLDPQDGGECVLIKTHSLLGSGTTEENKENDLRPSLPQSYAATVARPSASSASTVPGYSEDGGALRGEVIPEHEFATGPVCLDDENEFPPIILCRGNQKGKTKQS

[2] = molecular target: T2, WIPI4 (Homo sapiens, UniProt Q9Y484); experiment: liposome flotation, western blot; settings: 20 mM HEPES pH 7.5, 150 mM NaCl, 1 mM TCEP; LUVs with 5% PI3P versus without PI3P
T2 construct: gene WDR45; N-terminal 10xHis tag kept in flotation assays; expressed in Sf9 insect cells
T2 sequence (Q9Y484 1-360): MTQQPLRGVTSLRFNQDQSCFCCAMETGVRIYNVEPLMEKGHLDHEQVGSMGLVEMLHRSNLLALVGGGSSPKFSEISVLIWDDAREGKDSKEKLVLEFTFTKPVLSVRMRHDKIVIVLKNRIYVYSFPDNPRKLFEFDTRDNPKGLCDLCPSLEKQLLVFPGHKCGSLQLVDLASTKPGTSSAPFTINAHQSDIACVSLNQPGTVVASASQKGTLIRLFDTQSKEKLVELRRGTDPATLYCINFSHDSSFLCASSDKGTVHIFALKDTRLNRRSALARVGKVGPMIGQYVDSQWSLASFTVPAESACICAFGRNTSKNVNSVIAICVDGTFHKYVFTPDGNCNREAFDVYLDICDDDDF

[3] = molecular target: T3, ATG2A (Homo sapiens, UniProt Q2TAZ0); experiment: lipid extraction from LUVs, Nycodenz flotation, native PAGE fluorescence; settings: 20 mM HEPES pH 7.5, 150 mM NaCl, 1 mM TCEP; ~22 °C; 20% NBD-PE/80% DOPC LUVs; labelled compound
T3 construct: full-length (1938 residues); N-terminal GST cleaved by TEV, C-terminal TwinStrepII tag kept; expressed in Sf9 insect cells
T3 sequence (Q2TAZ0 whole entry): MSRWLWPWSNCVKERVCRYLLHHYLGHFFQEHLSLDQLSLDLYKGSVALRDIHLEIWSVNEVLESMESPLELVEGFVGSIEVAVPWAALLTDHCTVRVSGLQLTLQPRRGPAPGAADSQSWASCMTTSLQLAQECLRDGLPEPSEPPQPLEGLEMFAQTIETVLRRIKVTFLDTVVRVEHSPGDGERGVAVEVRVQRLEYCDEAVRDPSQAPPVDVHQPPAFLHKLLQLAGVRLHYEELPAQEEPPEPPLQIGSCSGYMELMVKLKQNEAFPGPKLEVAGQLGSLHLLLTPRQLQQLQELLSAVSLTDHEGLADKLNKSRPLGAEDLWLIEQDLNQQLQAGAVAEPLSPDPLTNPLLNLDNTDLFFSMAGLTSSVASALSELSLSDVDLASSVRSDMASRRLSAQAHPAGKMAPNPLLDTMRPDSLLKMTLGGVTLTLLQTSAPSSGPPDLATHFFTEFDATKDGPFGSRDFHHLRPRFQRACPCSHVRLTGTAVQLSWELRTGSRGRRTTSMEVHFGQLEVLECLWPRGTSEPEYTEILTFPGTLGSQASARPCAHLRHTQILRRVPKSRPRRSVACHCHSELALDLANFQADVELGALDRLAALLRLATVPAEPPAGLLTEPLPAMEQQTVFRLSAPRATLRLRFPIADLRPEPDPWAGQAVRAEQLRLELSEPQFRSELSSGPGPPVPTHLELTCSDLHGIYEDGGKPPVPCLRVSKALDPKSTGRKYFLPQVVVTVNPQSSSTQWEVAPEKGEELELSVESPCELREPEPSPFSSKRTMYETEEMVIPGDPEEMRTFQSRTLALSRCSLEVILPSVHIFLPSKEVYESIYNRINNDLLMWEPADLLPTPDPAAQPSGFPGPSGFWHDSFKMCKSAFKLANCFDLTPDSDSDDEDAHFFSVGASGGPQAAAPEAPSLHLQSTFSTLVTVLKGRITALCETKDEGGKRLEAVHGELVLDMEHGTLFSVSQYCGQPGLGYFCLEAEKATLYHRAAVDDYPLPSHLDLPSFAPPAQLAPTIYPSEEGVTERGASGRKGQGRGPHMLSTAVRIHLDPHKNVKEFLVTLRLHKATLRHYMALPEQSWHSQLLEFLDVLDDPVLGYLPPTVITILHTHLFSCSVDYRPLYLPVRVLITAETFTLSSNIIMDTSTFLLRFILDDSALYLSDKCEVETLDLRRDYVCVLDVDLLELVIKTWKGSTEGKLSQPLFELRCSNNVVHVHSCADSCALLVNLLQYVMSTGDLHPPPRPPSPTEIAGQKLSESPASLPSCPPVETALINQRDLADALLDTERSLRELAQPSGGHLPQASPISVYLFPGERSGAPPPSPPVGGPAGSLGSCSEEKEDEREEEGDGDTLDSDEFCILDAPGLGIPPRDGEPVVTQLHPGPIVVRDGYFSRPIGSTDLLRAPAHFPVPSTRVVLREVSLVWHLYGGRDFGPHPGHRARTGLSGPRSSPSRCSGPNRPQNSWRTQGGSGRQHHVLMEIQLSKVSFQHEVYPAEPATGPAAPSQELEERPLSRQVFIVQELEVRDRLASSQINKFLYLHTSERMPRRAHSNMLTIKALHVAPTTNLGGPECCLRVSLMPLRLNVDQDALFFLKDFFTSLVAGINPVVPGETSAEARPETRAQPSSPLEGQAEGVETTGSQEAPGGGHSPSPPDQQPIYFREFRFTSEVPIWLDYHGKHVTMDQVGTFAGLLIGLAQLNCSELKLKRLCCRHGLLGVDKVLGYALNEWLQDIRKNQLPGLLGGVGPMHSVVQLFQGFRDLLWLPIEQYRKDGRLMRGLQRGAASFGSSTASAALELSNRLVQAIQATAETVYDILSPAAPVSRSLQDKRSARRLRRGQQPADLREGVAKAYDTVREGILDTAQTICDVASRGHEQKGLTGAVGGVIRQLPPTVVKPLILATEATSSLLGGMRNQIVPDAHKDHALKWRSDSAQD

SMILES | liposome flotation, western blot [1] | liposome flotation, western blot [2] | lipid extraction from LUVs, Nycodenz flotation, native PAGE fluorescence [3]
CCCCCCCC/C=C\CCCCCCCC(=O)OC[C@H](COP(=O)(O)O[C@@H]1[C@H](O)[C@H](OP(=O)(O)O)[C@@H](O)[C@H](O)[C@H]1O)OC(=O)CCCCCCC/C=C\CCCCCCCC [PI3P] | both WIPIs bind to membranes in a PI3P-dependent manner | both WIPIs bind to membranes in a PI3P-dependent manner | 
CCCCCCCC/C=C\CCCCCCCC(=O)OC[C@H](COP(=O)(O)OCCNc1ccc([N+](=O)[O-])c2nonc12)OC(=O)CCCCCCC/C=C\CCCCCCCC [NBD-PE, 1,2-dioleoyl-sn-glycero-3-phosphoethanolamine-N-(7-nitro-2–1,3-benzoxadiazol-4-yl)] |  |  | ATG2A can extract NBD-PE from membranes and dissociate from the membrane with those lipids attached
